Measured values published in patent publication US11702402B2, “Small molecules that block proteasome-associated ubiquitin receptor RPN13 function and uses thereof” (DANA-FARBER CANCER INSTITUTE, INC., priority 2018, dated 2023).
“Also recorded” adds a separate entry of the source.

Assays:
[1] = tested on: UPR proteins (BIP, PERK, phosphorylated eIF2α, calnexin); test: UPR protein immunoblot; format: cell-based, Human; details: ANBL6.BR (1 μM) and MM.1S (WL40 200 nM, RA190 300 nM)
CRBN-DDB1 = CRBN-DDB1 (Homo sapiens, UniProt Q96SW2); test: CRBN AlphaScreen (displacement of biotinylated-pomalidomide probe); format: binding; details: in vitro AlphaScreen; thalidomide and lenalidomide as positive controls
CRBN-DDB1, sequence (Q96SW2 whole entry): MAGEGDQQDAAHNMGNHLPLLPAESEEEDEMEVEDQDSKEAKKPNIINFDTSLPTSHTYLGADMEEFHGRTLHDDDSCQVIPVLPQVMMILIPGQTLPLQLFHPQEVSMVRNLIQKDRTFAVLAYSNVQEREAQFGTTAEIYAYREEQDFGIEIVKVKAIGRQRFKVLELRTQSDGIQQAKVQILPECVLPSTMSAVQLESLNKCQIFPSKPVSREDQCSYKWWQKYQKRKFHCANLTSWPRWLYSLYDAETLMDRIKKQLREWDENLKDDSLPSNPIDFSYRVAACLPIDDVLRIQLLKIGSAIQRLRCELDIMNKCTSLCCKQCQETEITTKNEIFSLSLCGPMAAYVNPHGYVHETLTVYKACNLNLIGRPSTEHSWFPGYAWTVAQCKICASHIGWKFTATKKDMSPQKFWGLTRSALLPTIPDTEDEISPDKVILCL
CRBN-DDB1, sequence (Q16531 whole entry partner): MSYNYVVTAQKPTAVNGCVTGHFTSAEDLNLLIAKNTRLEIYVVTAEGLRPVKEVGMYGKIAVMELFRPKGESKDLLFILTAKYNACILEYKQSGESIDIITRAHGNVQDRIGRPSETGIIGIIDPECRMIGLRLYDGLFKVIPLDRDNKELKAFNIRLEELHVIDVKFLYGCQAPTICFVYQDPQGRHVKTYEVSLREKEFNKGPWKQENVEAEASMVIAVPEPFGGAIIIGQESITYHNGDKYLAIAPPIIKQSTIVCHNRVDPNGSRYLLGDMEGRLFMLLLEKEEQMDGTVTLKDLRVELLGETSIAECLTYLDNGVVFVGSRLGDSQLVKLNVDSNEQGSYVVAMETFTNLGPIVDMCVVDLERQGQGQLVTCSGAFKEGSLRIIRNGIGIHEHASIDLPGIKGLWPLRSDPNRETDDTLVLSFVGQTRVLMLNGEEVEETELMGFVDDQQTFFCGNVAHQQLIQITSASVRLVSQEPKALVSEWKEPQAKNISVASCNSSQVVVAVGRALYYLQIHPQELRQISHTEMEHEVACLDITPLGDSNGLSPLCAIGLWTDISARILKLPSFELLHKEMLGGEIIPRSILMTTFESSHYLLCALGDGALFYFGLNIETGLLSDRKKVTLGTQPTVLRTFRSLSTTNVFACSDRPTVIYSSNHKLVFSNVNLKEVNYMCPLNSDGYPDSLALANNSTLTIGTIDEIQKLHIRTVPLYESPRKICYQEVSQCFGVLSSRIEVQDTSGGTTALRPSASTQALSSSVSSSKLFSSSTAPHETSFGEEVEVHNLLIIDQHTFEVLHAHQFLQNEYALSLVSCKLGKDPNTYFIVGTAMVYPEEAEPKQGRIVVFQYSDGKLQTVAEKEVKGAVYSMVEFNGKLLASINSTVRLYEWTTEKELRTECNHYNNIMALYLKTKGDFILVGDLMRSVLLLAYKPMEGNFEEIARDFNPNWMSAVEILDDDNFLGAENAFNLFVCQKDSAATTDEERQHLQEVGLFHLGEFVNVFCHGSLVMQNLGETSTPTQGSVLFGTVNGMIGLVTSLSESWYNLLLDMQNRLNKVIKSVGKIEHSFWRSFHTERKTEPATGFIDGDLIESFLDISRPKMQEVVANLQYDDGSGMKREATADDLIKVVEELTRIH

[2] = tested on: Ub-tagged GFP that is constitutively targeted for proteasomal degradation; test: Ub-GFP (GFPu-1) reporter cell line immunoblot; format: cell-based; details: 16 hours
Experimental: Cell lysates were loaded on SDS-PAGE, transferred to PVDF membrane, then immunoblotted with anti-GFP, and anti beta-actin antibodies.
In FIG. 18, a reporter cell line expressing Ub-tagged GFP that is constitutively targeted for proteasomal degradation was treated with RA190 ([…]); and JQRA ([…]) for 16 hours. Cell lysates were loaded on SDS-PAGE, transferred to PVDF membrane, then immunoblotted with anti-GFP, and anti-alpha tubulin antibodies.
FIGS. 19A-19I show the exemplary design and characterization of exemplary Rpn13 degrader WL40. […] WL40 was created by linking the Rpn13 inhibitor RA190 to the IMiD thalidomide as a ligand for the CRBN E3 ligase via a PEG linker. […] FIG. 19C is a schematic cartoon for the novel AlphaScreen assay to measure the binding activity of inhibitor with RPN13 proteins. […] FIG. 19E depicts immunoblot analysis of multiple myeloma 1S (MM.1S) cells, which were treated with WL40 or RA190 at the indicated concentrations and time periods; protein lysates were subjected to the immunoblot analysis using anti-Rpn13 or anti-tubulin Abs. FIG. 19F depicts flow cytometry analysis of MM.1S cells, which were treated with DMSO control, WL40 (400 nM), or RA190 (500 nM) for 16 hours; cells were then washed and stained with Rpn13 Ab conjugated with AlexaFluor-647, followed by the flow cytometry analysis. Isotype Ab conjugated to AlexaFluor-647 was used as control for non-specific binding. Data was quantified using FACS Diva (BD Biosciences, USA) and FlowJo (FlowJo LLC, USA). FIG. 19G depicts immunoblot analysis of MM.1S-CRBN KO cells, which were treated with WL40 (400 nM) or RA190 (500 nM) for 16 hours; protein lysates were subjected to the immunoblot analysis using anti-Rpn13 or anti β-actin Abs. […]
To confirm that CRBN presence is a prerequisite for the function of WL40 in cells, CRBN-knockout (KO) MM.1S cells^27, 38 were utilized, and the effect of WL40 on Rpn13 degradation was examined. […] GFPu-1 cells were treated with WL40, and GFP levels were then analyzed using immunoblotting. […]

MM.1S CRBN KO cells = test: MM.1S CRBN KO cell viability; format: cell-based, Human
Excerpt: FIGS. […] Wst-1 assay was used to test cell viability.
The experiment was repeated twice and JQRA concentration was increased (as indicated) at the second time.

SMILES | induction of UPR signaling [1] | CRBN binding (CRBN-DDB1) | Ub-GFP levels / proteasome function (immunoblot) ([2]; 312 μM, 625 μM, 1250 μM, 2500 μM, 5000 μM) | cytotoxicity (percentage of viable cells) (MM.1S CRBN KO cells; CRBN-KO cells, 72 hours) | Ub-GFP levels / proteasome function (immunoblot) ([2]; WL40, WL44 0.5-2.0 μM, RA190 1 μM) | cell viability (MM.1S CRBN KO cells; MM.1S-CRBN KO, 24 hours, Wst-1)
Cl.N[C@@H](Cc1ccccc1)C(=O)N1C/C(=C/c2ccc(Cl)c(Cl)c2)C(=O)/C(=C\c2ccc(Cl)c(Cl)c2)C1 [RA190, reference compound] | delayed kinetics and to a lesser extent than Rpn13 degrader WL40 | did not show any binding to CRBN | blocks proteasome function | more robust MM cytotoxicity | – | –
O=C1CCC(N2C(=O)c3cccc(NCCOCCOCCOCCC(=O)N[C@@H](Cc4ccccc4)C(=O)N4C/C(=C\c5ccc(Cl)c(Cl)c5)C(=O)/C(=C/c5ccc(Cl)c(Cl)c5)C4)c3C2=O)C(=O)N1 (some centres unmarked) [WL40] | rapid and robust induction of UPR proteins | interacts with the E3 ubiquitin receptor CRBN | – | – | block proteasome function; also recorded: increases GFP levels | decrease cell viability
